Assay results as given in patent US12133486B2, “Methods of propagation of arbuscular mycorrhizal fungi (AMF) and uses thereof” (Terra Microbes, LLC, priority 2021, dated 2024).

Tested on: AM fungi infection of yellow sweet clover (Melilotus officinalis) roots
Assay: Pot study: AM infection level of yellow sweet clover roots
Assay type: in vivo
Conditions: YBSC plants; 80 ppm treatment P; 66 days; infected 1.1 mm root segments per 80 examined
Text: This Example is an un-replicated study to examine whether PO3^−3 (phosphite) impacts spore production and infection rate of AM fungi. The fungi were a mixed inoculum source from the University of West Virginia (UWV). UWV holds and maintains the International Culture Collection of (Vesicular) Arbuscular Mycorrhizal Fungi (INVAM). The plant used was yellow blossom sweet clover (Melilotus officinalis). All pots were inoculated, but only half were planted. Each Experimental unit was a 20 cm pot. Substrate for the units were a soil, sand, and inoculum mixture.
The present example was designed as a pot experiment where each pot was a treatment, the treatments being untreated controls, units treated with phosphate, and units treated with phosphite. All pots were a mixture of steamed ML soil, sand, and inoculum. Control units (pots) received no other treatment. Phosphate pots were treated with K2HPO4. Phosphite pots were treated with an equivalent molarity (concentration) of P as K2HPO3.
Half of the pots (a control, phosphate, and phosphite treatments) were planted with yellow sweet clover seed. The other half of the pots (also a control, phosphate, and phosphite treatment) were not planted with any plants.
Phosphate and phosphite were added to the soil materials such that the phosphorus in each would constitute 80 mg per kg of soil (Table 6). […]

Row | SMILES | AM Infection level, %
1 | OP(O)O [PO3, dipotassium phosphite] | 35%
2 | O=P([O-])([O-])O.[K+].[K+] [PO4, dipotassium phosphate] | 47.5%
